# In ChEMBL document CHEMBL4706685 (J Med Chem, 2021):
# What was measured:
# [1] = Lipophilicity, logP of compound by HPLC analysis; type: physicochemical
# CYP2B6 = experiment: Induction of CYP2B6 mRNA expression in human hepatocytes up to 30 uM relative to positive control; type: ADME, cell-based, Hepatocyte; settings: read-out: Activity
# CYP1A2 = experiment: Induction of CYP1A2 mRNA expression in human hepatocytes up to 30 uM relative to positive control; type: ADME, cell-based, Hepatocyte; settings: read-out: Activity
# [2] = Drug excretion in female Sprague-Dawley rat urine/feces assessed as drug recovery at […], po administered as single dose using [14C]-EC5026 measured through 168 hrs postdose; settings: in vivo
# [3] = Terminal half life in human at 8 to 24 mg; type: ADME; settings: dose 8-24 mg, read-out: beta t1/2 (converted)
# CYP3A4 = experiment: Induction of CYP3A4 mRNA expression in human hepatocytes up to 30 uM relative to positive control; type: ADME, cell-based, Hepatocyte; settings: read-out: Activity
# [4] = Drug excretion in male Sprague-Dawley rat urine/feces assessed as drug recovery at 3 mg/kg, po administered as single dose using [14C]-EC5026 measured through 168 hrs postdose; settings: in vivo
# [5] = Solubility in 0.1M sodium phosphate buffer at pH 7.4; type: physicochemical
logP ([1]; read-out: logP),Emax (CYP2B6),Emax (CYP1A2),Drug recovery [2],half-life [3],Emax (CYP3A4),Drug recovery [4],logP [1],solubility [5],SMILES
4.2,–,–,–,–,–,–,–,–,O=C(Nc1ccc(OC(F)(F)F)c(F)c1)NC1CCN(C(=O)C2CC2)CC1
6,< 20%,< 20%,96.5%,42 h,< 20%,96.5%,–,–,CC[C@H](C)C(=O)N1CCC(NC(=O)Nc2ccc(OC(F)(F)F)c(F)c2)CC1
–,–,–,–,–,–,–,3.2,404.41 µg/mL,CC[C@H](C)C(=O)N1CCC(CC(=O)Nc2ccc(OC(F)(F)F)c(F)c2)CC1
